Test results as given in the supplement of paper PMC10307832.

Legend:
Assay in all cases: relative viability (nuclei count vs DMSO), 5 days (fraction); higher = more cells survive
NCI-H596 = tested on: NCI-H596
In short: (§1)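 Dosing by pin tool came one day after lung cancer cell lines were seeded in 1536-well plates, using either one drug or a fixed anchor-drug dose plus five library-drug doses (not always all listed) in √10 steps. After 5 days, nuclei were counted on 4× images. Relative viability is treated-well nuclei count divided by vehicle-well nuclei count, and values are medians of duplicate plates.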

NCI-H2126 = tested on: NCI-H2126
In short: as §1

HCC-827 = tested on: HCC-827
In short: as §1

NCI-H1650 = tested on: NCI-H1650
In short: as §1

LK-2 = tested on: LK-2
In short: as §1

COR-L23 = tested on: COR-L23
In short: as §1

EKVX = tested on: EKVX
In short: as §1

NCI-H2087 = tested on: NCI-H2087
In short: as §1

BEN = tested on: BEN
In short: as §1

EMC-BAC-2 = tested on: EMC-BAC-2
In short: as §1

NCI-H1915 = tested on: NCI-H1915
In short: as §1

EPLC-272H = tested on: EPLC-272H
In short: as §1

NCI-H1793 = tested on: NCI-H1793
In short: as §1

LCLC-103H = tested on: LCLC-103H
In short: as §1

HCC-44 = tested on: HCC-44
In short: as §1

NCI-H2347 = tested on: NCI-H2347
In short: as §1

LXF-289 = tested on: LXF-289
In short: as §1

A-427 = tested on: A-427
In short: as §1

SW 1573 = tested on: SW 1573
In short: as §1

NCI-H1651 = tested on: NCI-H1651
In short: as §1

201T = tested on: 201T
In short: as §1

NCI-H358 = tested on: NCI-H358
In short: as §1

NCI-H460 = tested on: NCI-H460
In short: as §1

Compound: O=C(O)CCCCC(CCSCc1ccccc1)SCc1ccccc1 (centres undefined) [CPI-613] + CC(=O)Nc1cccc(-n2c(=O)n(C3CC3)c(=O)c3c(Nc4ccc(I)cc4F)n(C)c(=O)c(C)c32)c1 [Trametinib] (partner 0.02 µM)
- relative viability (NCI-H596; first compound 5 µM): 0.823
- relative viability (NCI-H596; first compound 15.81 µM): 0.732
- relative viability (NCI-H596; first compound 50 µM): 0.765
- relative viability (NCI-H596; first compound 158.11 µM): 0.34
- relative viability (NCI-H596; first compound 500 µM): 0.036
- relative viability (NCI-H2126; first compound 5 µM): 0.528
- relative viability (NCI-H2126; first compound 15.81 µM): 0.538
- relative viability (NCI-H2126; first compound 50 µM): 0.615
- relative viability (NCI-H2126; first compound 158.11 µM): 0.232
- relative viability (NCI-H2126; first compound 500 µM): 0.193
- relative viability (HCC-827; first compound 5 µM): 0.518
- relative viability (HCC-827; first compound 15.81 µM): 0.555
- relative viability (HCC-827; first compound 50 µM): 0.571
- relative viability (HCC-827; first compound 158.11 µM): 0.518
- relative viability (HCC-827; first compound 500 µM): 0.483
- relative viability (NCI-H1650; first compound 5 µM): 0.546
- relative viability (NCI-H1650; first compound 15.81 µM): 0.548
- relative viability (NCI-H1650; first compound 50 µM): 0.537
- relative viability (NCI-H1650; first compound 158.11 µM): 0.168
- relative viability (NCI-H1650; first compound 500 µM): 0.0145
- relative viability (LK-2; first compound 5 µM): 0.702
- relative viability (LK-2; first compound 15.81 µM): 0.786
- relative viability (LK-2; first compound 50 µM): 0.93
- relative viability (LK-2; first compound 158.11 µM): 0.856
- relative viability (LK-2; first compound 500 µM): 0.792
- relative viability (COR-L23; first compound 5 µM): 0.651
- relative viability (COR-L23; first compound 15.81 µM): 0.524
- relative viability (COR-L23; first compound 50 µM): 0.63
- relative viability (COR-L23; first compound 158.11 µM): 0.198
- relative viability (COR-L23; first compound 500 µM): 0.0522
- relative viability (EKVX; first compound 5 µM): 0.287
- relative viability (EKVX; first compound 15.81 µM): 0.272
- relative viability (EKVX; first compound 50 µM): 0.343
- relative viability (EKVX; first compound 500 µM): 0.325
- relative viability (NCI-H2087; first compound 5 µM): 0.207
- relative viability (NCI-H2087; first compound 15.81 µM): 0.16
- relative viability (NCI-H2087; first compound 50 µM): 0.159
- relative viability (NCI-H2087; first compound 158.11 µM): 0.0653
- relative viability (NCI-H2087; first compound 500 µM): 0.003
- relative viability (BEN; first compound 5 µM): 1.14
- relative viability (BEN; first compound 15.81 µM): 0.976
- relative viability (BEN; first compound 50 µM): 0.958
- relative viability (BEN; first compound 158.11 µM): 0.804
- relative viability (BEN; first compound 500 µM): 0.905
- relative viability (EMC-BAC-2; first compound 5 µM): 0.928
- relative viability (EMC-BAC-2; first compound 15.81 µM): 0.884
- relative viability (EMC-BAC-2; first compound 50 µM): 0.906
- relative viability (EMC-BAC-2; first compound 158.11 µM): 0.521
- relative viability (EMC-BAC-2; first compound 500 µM): 0.639
- relative viability (NCI-H1915; first compound 5 µM): 0.292
- relative viability (NCI-H1915; first compound 15.81 µM): 0.284
- relative viability (NCI-H1915; first compound 50 µM): 0.299
- relative viability (NCI-H1915; first compound 158.11 µM): 0.216
- relative viability (NCI-H1915; first compound 500 µM): 0.148
- relative viability (EPLC-272H; first compound 5 µM): 0.233
- relative viability (EPLC-272H; first compound 15.81 µM): 0.232
- relative viability (EPLC-272H; first compound 50 µM): 0.29
- relative viability (EPLC-272H; first compound 158.11 µM): 0.222
- relative viability (EPLC-272H; first compound 500 µM): 0.268
- relative viability (NCI-H1793; first compound 5 µM): 0.429
- relative viability (NCI-H1793; first compound 15.81 µM): 0.413
- relative viability (NCI-H1793; first compound 50 µM): 0.405
- relative viability (NCI-H1793; first compound 158.11 µM): 0.225
- relative viability (NCI-H1793; first compound 500 µM): 0.0839
- relative viability (LCLC-103H; first compound 5 µM): 0.67
- relative viability (LCLC-103H; first compound 15.81 µM): 0.662
- relative viability (LCLC-103H; first compound 50 µM): 0.727
- relative viability (LCLC-103H; first compound 158.11 µM): 0.422
- relative viability (LCLC-103H; first compound 500 µM): 0.372
- relative viability (HCC-44; first compound 5 µM): 1.04
- relative viability (HCC-44; first compound 15.81 µM): 1.03
- relative viability (HCC-44; first compound 50 µM): 1.08
- relative viability (HCC-44; first compound 158.11 µM): 0.649
- relative viability (HCC-44; first compound 500 µM): 0.62
- relative viability (NCI-H2347; first compound 5 µM): 0.256
- relative viability (NCI-H2347; first compound 15.81 µM): 0.232
- relative viability (NCI-H2347; first compound 50 µM): 0.259
- relative viability (NCI-H2347; first compound 158.11 µM): 0.22
- relative viability (NCI-H2347; first compound 500 µM): 0.206
- relative viability (LXF-289; first compound 5 µM): 0.653
- relative viability (LXF-289; first compound 15.81 µM): 0.659
- relative viability (LXF-289; first compound 50 µM): 0.665
- relative viability (LXF-289; first compound 158.11 µM): 0.446
- relative viability (LXF-289; first compound 500 µM): 0.572
- relative viability (A-427; first compound 5 µM): 0.716
- relative viability (A-427; first compound 15.81 µM): 0.766
- relative viability (A-427; first compound 50 µM): 0.682
- relative viability (A-427; first compound 158.11 µM): 0.476
- relative viability (A-427; first compound 500 µM): 0.391
- relative viability (SW 1573; first compound 5 µM): 0.557
- relative viability (SW 1573; first compound 15.81 µM): 0.433
- relative viability (SW 1573; first compound 50 µM): 0.482
- relative viability (SW 1573; first compound 158.11 µM): 0.133
- relative viability (SW 1573; first compound 500 µM): 0.0735
- relative viability (NCI-H1651; first compound 5 µM): 0.771
- relative viability (NCI-H1651; first compound 15.81 µM): 0.771
- relative viability (NCI-H1651; first compound 50 µM): 0.848
- relative viability (NCI-H1651; first compound 158.11 µM): 0.783
- relative viability (NCI-H1651; first compound 500 µM): 0.765
- relative viability (201T; first compound 5 µM): 0.709
- relative viability (201T; first compound 15.81 µM): 0.701
- relative viability (201T; first compound 50 µM): 0.668
- relative viability (201T; first compound 158.11 µM): 0.421
- relative viability (201T; first compound 500 µM): 0.408
- relative viability (NCI-H358; first compound 5 µM): 0.132
- relative viability (NCI-H358; first compound 15.81 µM): 0.133
- relative viability (NCI-H358; first compound 50 µM): 0.132
- relative viability (NCI-H358; first compound 158.11 µM): 0.0921
- relative viability (NCI-H358; first compound 500 µM): 0.0459
- relative viability (NCI-H460; first compound 5 µM): 0.128
- relative viability (NCI-H460; first compound 15.81 µM): 0.132
- relative viability (NCI-H460; first compound 50 µM): 0.116
- relative viability (NCI-H460; first compound 158.11 µM): 0.0278
- relative viability (NCI-H460; first compound 500 µM): 0.0229
